Measurements published in patent US20140187771A1, “AMORPHOUS SOLID SALTS” (Gilead Sciences, Inc., priority 2011, published 2014).

How the values were obtained:
[1] = Glass transition temperature (Tg) by modulated differential scanning calorimetry (mDSC); format: physicochemical; settings: for Tg (° C.) First heating / Tg (° C.) Second heating: mDSC, precipitated salts of Compound 1; for Tg (° C.) First heating: first heating cycle; for Tg (° C.) Second heating: second heating cycle (intrinsic Tg in dry state); for Tg (° C.): spray dried salts (from acetone)
Procedure: Modulated differential scanning calorimetry (mDSC) was used to characterize salts of the invention. Solid samples were placed in hermetically sealed aluminum pan with a pinhole. Modulation amplitude of ±0.8° C. with a period of 60 sec was applied to the sample heated at 2° C./min under dried nitrogen purge using TA instruments (New Castle, Del., USA) model 1000.
Heat-cool-heat cycles were applied to allow for moisture evaporation during first heating cycle and to erase thermal history of the sample, which allowed for the determination of the intrinsic glass transition temperature (Tg) in dry state.

[2] = Hygroscopicity at room temperature (weight gain and visual phase transition after 24 hours at controlled RH); format: physicochemical
Procedure: Hygroscopicity of salts of invention were measured by placing 20-50 mg of the sample in an uncapped scintillation vial. The vial was stored at ambient temperature in a Pyrex brand desiccator (VWR, International, CT). […] The relative humidity was confirmed using a digital hygrometer pen (VWR International, CT). An empty scintillation vial was also placed in the desiccator as a control. […] Visual observation of phase transition was also noted.

[3] = 55% RH, room temperature, 24 hours
[4] = 55% RH, room temperature, 24 hours, visual observation
[5] = 75% RH, room temperature, 24 hours
[6] = 75% RH, room temperature, 24 hours, visual observation

CC(C)c1nc(CN(C)C(=O)N[C@@H](CCN2CCOCC2)C(=O)N[C@H](CC[C@H](Cc2ccccc2)NC(=O)OCc2cncs2)Cc2ccccc2)cs1.CCS(=O)(=O)O
Tg (° C.) First heating [1]: −0.23 °C
Tg (° C.) Second heating [1]: 37 °C
% weight gain [2, 3]: 8.78%
Phase transition [2, 4]: Yes
% weight gain [2, 5]: 16.2%
Phase transition [2, 6]: Yes

CC(C)c1nc(CN(C)C(=O)N[C@@H](CCN2CCOCC2)C(=O)N[C@H](CC[C@H](Cc2ccccc2)NC(=O)OCc2cncs2)Cc2ccccc2)cs1.CC1(C)C2CCC1(CS(=O)(=O)O)C(=O)C2 [camphorosulfonate]
Tg (° C.) First heating [1]: 66 °C
Tg (° C.) Second heating [1]: 66 °C
% weight gain [2, 3]: 2.99%
Phase transition [2, 4]: No
% weight gain [2, 5]: 5.9%
Phase transition [2, 6]: Yes

CC(C)c1nc(CN(C)C(=O)N[C@@H](CCN2CCOCC2)C(=O)N[C@H](CC[C@H](Cc2ccccc2)NC(=O)OCc2cncs2)Cc2ccccc2)cs1 [citrate]
Tg (° C.) First heating [1]: 59 °C
Tg (° C.) Second heating [1]: 60 °C
% weight gain [2, 3]: 3.17%
Phase transition [2, 4]: No
% weight gain [2, 5]: 6.5%
Phase transition [2, 6]: Partial

CC(C)c1nc(CN(C)C(=O)N[C@@H](CCN2CCOCC2)C(=O)N[C@H](CC[C@H](Cc2ccccc2)NC(=O)OCc2cncs2)Cc2ccccc2)cs1.O=C(O)c1cc(O)ccc1O [gentisate]
Tg (° C.) First heating [1]: 62 °C
Tg (° C.) Second heating [1]: 62 °C
Tg (° C.) [1]: 61 °C
% weight gain [2, 3]: 2.17%
Phase transition [2, 4]: No
% weight gain [2, 5]: 5.2%
Phase transition [2, 6]: No
Phase transition ([2]; spray dried salts, 55% RH): no
Weight gain at 55% RH RH (%) ([2]; spray dried salts, 55% RH): 3.1%
Phase transition ([2]; spray dried salts, 75% RH): partial
Weight gain at 75% (%) ([2]; spray dried salts, 75% RH): 5.6%

CC(C)c1nc(CN(C)C(=O)N[C@@H](CCN2CCOCC2)C(=O)N[C@H](CC[C@H](Cc2ccccc2)NC(=O)OCc2cncs2)Cc2ccccc2)cs1.O=C(O)CNC(=O)c1ccccc1 [hippurate]
Tg (° C.) First heating [1]: 31 °C
Tg (° C.) Second heating [1]: 44 °C
% weight gain [2, 3]: 3.37%
Phase transition [2, 4]: Partial
% weight gain [2, 5]: 5.61%
Phase transition [2, 6]: Yes

CC(C)c1nc(CN(C)C(=O)N[C@@H](CCN2CCOCC2)C(=O)N[C@H](CC[C@H](Cc2ccccc2)NC(=O)OCc2cncs2)Cc2ccccc2)cs1.Cl [hydrochloride]
Tg (° C.) First heating [1]: 34 °C
Tg (° C.) Second heating [1]: 59 °C
Tg (° C.) [1]: 35 °C
% weight gain [2, 3]: 4.32%
Phase transition [2, 4]: Partial
% weight gain [2, 5]: 6.92%
Phase transition [2, 6]: Yes
Phase transition ([2]; spray dried salts, 55% RH): partial
Weight gain at 55% RH RH (%) ([2]; spray dried salts, 55% RH): 7.8%
Phase transition ([2]; spray dried salts, 75% RH): yes
Weight gain at 75% (%) ([2]; spray dried salts, 75% RH): 9.4%

O=C(O)CCC(=O)C(=O)O [ketoglutarate]
Tg (° C.) First heating [1]: 24 °C
Tg (° C.) Second heating [1]: 42 °C
% weight gain [2, 3]: 3.27%
Phase transition [2, 4]: Yes
% weight gain [2, 5]: 5.23%
Phase transition [2, 6]: Yes

CC(C)c1nc(CN(C)C(=O)N[C@@H](CCN2CCOCC2)C(=O)N[C@H](CC[C@H](Cc2ccccc2)NC(=O)OCc2cncs2)Cc2ccccc2)cs1.CC(O)C(=O)O [lactate]
Tg (° C.) First heating [1]: 2 °C
Tg (° C.) Second heating [1]: 17 °C
% weight gain [2, 5]: 5.76%
Phase transition [2, 6]: Yes

CC(C)c1nc(CN(C)C(=O)N[C@@H](CCN2CCOCC2)C(=O)N[C@H](CC[C@H](Cc2ccccc2)NC(=O)OCc2cncs2)Cc2ccccc2)cs1.O=C(O)CC(=O)O [malonate]
Tg (° C.) First heating [1]: 14 °C
Tg (° C.) Second heating [1]: 36 °C
% weight gain [2, 3]: 3.43%
Phase transition [2, 4]: Yes
% weight gain [2, 5]: 6.18%
Phase transition [2, 6]: Yes

CC(C)c1nc(CN(C)C(=O)N[C@@H](CCN2CCOCC2)C(=O)N[C@H](CC[C@H](Cc2ccccc2)NC(=O)OCc2cncs2)Cc2ccccc2)cs1.O=C(O)C(=O)O.O=C(O)C(=O)O [oxalate]
Tg (° C.) First heating [1]: 34 °C
Tg (° C.) Second heating [1]: 46 °C
% weight gain [2, 3]: 4.38%
Phase transition [2, 4]: Partial
% weight gain [2, 5]: 9.36%
Phase transition [2, 6]: Yes

CC(C)c1nc(CN(C)C(=O)N[C@@H](CCN2CCOCC2)C(=O)N[C@H](CC[C@H](Cc2ccccc2)NC(=O)OCc2cncs2)Cc2ccccc2)cs1.O=P(O)(O)O [phosphate]
Tg (° C.) First heating [1]: 66 °C
Tg (° C.) Second heating [1]: 69 °C
Tg (° C.) [1]: 92 °C
% weight gain [2, 3]: 4.52%
Phase transition [2, 4]: No
% weight gain [2, 5]: 7.9%
Phase transition [2, 6]: Partial
Phase transition ([2]; spray dried salts, 55% RH): no
Weight gain at 55% RH RH (%) ([2]; spray dried salts, 55% RH): 4.7%
Phase transition ([2]; spray dried salts, 75% RH): yes
Weight gain at 75% (%) ([2]; spray dried salts, 75% RH): 8.0%

CC(C)c1nc(CN(C)C(=O)N[C@@H](CCN2CCOCC2)C(=O)N[C@H](CC[C@H](Cc2ccccc2)NC(=O)OCc2cncs2)Cc2ccccc2)cs1.O=C1NS(=O)(=O)c2ccccc21 [saccharinate]
Tg (° C.) First heating [1]: 37 °C
Tg (° C.) Second heating [1]: 56 °C
Tg (° C.) [1]: 36.4 °C
% weight gain [2, 3]: 1.89%
Phase transition [2, 4]: No
% weight gain [2, 5]: 4.09%
Phase transition [2, 6]: Yes
Phase transition ([2]; spray dried salts, 55% RH): no
Phase transition ([2]; spray dried salts, 75% RH): yes
Weight gain at 75% (%) ([2]; spray dried salts, 75% RH): 4.0%

CC(C)c1nc(CN(C)C(=O)N[C@@H](CCN2CCOCC2)C(=O)N[C@H](CC[C@H](Cc2ccccc2)NC(=O)OCc2cncs2)Cc2ccccc2)cs1.O=C(O)CCC(=O)O [succinate]
Tg (° C.) First heating [1]: 16 °C
Tg (° C.) Second heating [1]: 35 °C
% weight gain [2, 3]: 3.95%
Phase transition [2, 4]: Yes
% weight gain [2, 5]: 6.09%
Phase transition [2, 6]: Yes

O=S(=O)(O)O [sulfate]
Tg (° C.) First heating [1]: 71 °C
Tg (° C.) Second heating [1]: 71 °C
Phase transition [2, 4]: Partial
Phase transition [2, 6]: Yes

CC(C)c1nc(CN(C)C(=O)NC(CCN2CCOCC2)C(=O)NC(CCC(Cc2ccccc2)NC(=O)OCc2cncs2)Cc2ccccc2)cs1.O=C(O)c1ccc2ccccc2c1O (centres unmarked) [xinafoate]
Tg (° C.) First heating [1]: 49 °C
Tg (° C.) Second heating [1]: 51 °C
Tg (° C.) [1]: 42 °C
% weight gain [2, 3]: 0.29%
Phase transition [2, 4]: No
% weight gain [2, 5]: 1.97%
Phase transition [2, 6]: No
Phase transition ([2]; spray dried salts, 55% RH): no
Weight gain at 55% RH RH (%) ([2]; spray dried salts, 55% RH): 2.6%
Phase transition ([2]; spray dried salts, 75% RH): no
Weight gain at 75% (%) ([2]; spray dried salts, 75% RH): 3.3%

ascorbate
Tg (° C.) First heating [1]: 42 °C
Tg (° C.) Second heating [1]: 60 °C
% weight gain [2, 3]: 3.23%
Phase transition [2, 4]: No
% weight gain [2, 5]: 7.56%
Phase transition [2, 6]: Yes

benzoate
Tg (° C.) First heating [1]: 14 °C
Tg (° C.) Second heating [1]: 23 °C
% weight gain [2, 3]: 1.99%
Phase transition [2, 4]: Yes
% weight gain [2, 5]: 3.63%
Phase transition [2, 6]: Yes

dichloroacetate
Tg (° C.) Second heating [1]: 34 °C
% weight gain [2, 3]: 3.36%
Phase transition [2, 4]: Yes
% weight gain [2, 5]: 7.3%
Phase transition [2, 6]: Yes

fumarate
Tg (° C.) First heating [1]: 37 °C
Tg (° C.) Second heating [1]: 51 °C
Tg (° C.) [1]: 31 °C
% weight gain [2, 3]: 2.11%
Phase transition [2, 4]: No
% weight gain [2, 5]: 6.02%
Phase transition [2, 6]: Yes
Phase transition ([2]; spray dried salts, 55% RH): no
Weight gain at 55% RH RH (%) ([2]; spray dried salts, 55% RH): 3.2%
Phase transition ([2]; spray dried salts, 75% RH): yes
Weight gain at 75% (%) ([2]; spray dried salts, 75% RH): 6.0%

maleate
Tg (° C.) First heating [1]: 24 °C
Tg (° C.) Second heating [1]: 37 °C
% weight gain [2, 3]: 4.41%
Phase transition [2, 4]: Yes
% weight gain [2, 5]: 6.67%
Phase transition [2, 6]: Yes

tartarate
Tg (° C.) First heating [1]: 44 °C
Tg (° C.) Second heating [1]: 66 °C
Tg (° C.) [1]: 67 °C
% weight gain [2, 3]: 3.23%
Phase transition [2, 4]: No
% weight gain [2, 5]: 7.6%
Phase transition [2, 6]: Partial
Phase transition ([2]; spray dried salts, 55% RH): no
Weight gain at 55% RH RH (%) ([2]; spray dried salts, 55% RH): 5.8%
Phase transition ([2]; spray dried salts, 75% RH): yes
Weight gain at 75% (%) ([2]; spray dried salts, 75% RH): 6.3%

tosylate
Tg (° C.) First heating [1]: 32 °C
Tg (° C.) Second heating [1]: 46 °C
% weight gain [2, 3]: 3.11%
Phase transition [2, 4]: Partial
% weight gain [2, 5]: 6.5%
Phase transition [2, 6]: Yes
